Measured values: the supplement of paper PMC10331698
± gives the standard deviation of the averaged measurements.

Assays:
Test in all cases: level (log10 ratio to DMSO vehicle control); higher = higher biomarker level / cell amount than vehicle control
[1] = compound: OCCC(F)(F)C(F)(F)C(F)(F)C(F)(F)F [4:2 Fluorotelomer alcohol] (in DMSO)
Protocol: (§1)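 BioMAP Diversity Plus panel of 12 human primary cell co-culture systems (3C, 4H, LPS, SAg, BT, BF4T, BE3C, CASM3C, HDF3CGF, KF3CT, MyoF, Mphg). Compounds were added 1 h before stimulation and left for 24 h (MyoF 48 h; BT 72 h for soluble read-outs or 6 d for IgG). Biomarkers were read by ELISA, cytotoxicity by SRB, PBMC viability and proliferation by Alamar Blue. Each well value was divided by the mean of 8 DMSO control wells on the same plate and log10 transformed; duplicate blinded samples were tested at 4 concentrations.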

[2] = compound: O=C(O)C(F)(OC(F)(F)C(F)(F)C(F)(F)F)C(F)(F)F [Ammonium perfluoro-2-methyl-3-oxahexanoate] (in Water)
Protocol: as §1

[3] = compound: OCC(F)(F)C(F)(F)C(F)(F)C(F)(F)C(F)(F)C(F)(F)CO [1H,1H,8H,8H-Perfluorooctane-1,8-diol] (in DMSO)
Protocol: as §1

[4] = compound: O=C(O)C(F)(F)OC(F)(F)C(F)(F)OC(F)(F)C(F)(F)OC(F)(F)C(F)(F)C(F)(F)C(F)(F)F [Perfluoro-3,6,9-trioxatridecanoic acid] (in DMSO); conditions: 6700 nM
Protocol: as §1

[5] = compound: O=C(O)C(F)(OC(F)(F)C(F)(OC(F)(F)C(F)(OC(F)(F)C(F)(F)C(F)(F)F)C(F)(F)F)C(F)(F)F)C(F)(F)F [Perfluoro-(2,5,8-trimethyl-3,6,9-trioxadodecanoic)acid] (in DMSO)
Protocol: as §1

Perfluoroundecanoic acid = compound: O=C(O)C(F)(F)C(F)(F)C(F)(F)C(F)(F)C(F)(F)C(F)(F)C(F)(F)C(F)(F)C(F)(F)C(F)(F)F [Perfluoroundecanoic acid] (in DMSO); conditions: 6700 nM
Protocol: as §1

Perfluorononanoic acid = compound: O=C(O)C(F)(F)C(F)(F)C(F)(F)C(F)(F)C(F)(F)C(F)(F)C(F)(F)C(F)(F)F [Perfluorononanoic acid] (in DMSO)
Protocol: as §1

[6] = compound: C[C@@H]1C[C@H]2[C@@H]3CCC4=CC(=O)C=C[C@]4(C)[C@@]3(F)[C@@H](O)C[C@]2(C)[C@@]1(O)C(=O)COP(=O)(O)O [Dexamethasone sodium phosphate] (in DMSO)
Protocol: as §1

Test System | level (log10) ([1]; 6700 nM) | level (log10) ([1]; 20000 nM) | level (log10) ([1]; 60000 nM) | level (log10) ([2]; 6700 nM) | level (log10) ([2]; 20000 nM) | level (log10) ([2]; 60000 nM) | level (log10) ([3]; 6700 nM) | level (log10) ([3]; 20000 nM) | level (log10) ([3]; 60000 nM) | level (log10) [4] | level (log10) ([5]; 1100 nM) | level (log10) ([5]; 3300 nM) | level (log10) ([5]; 10000 nM) | level (log10) (Perfluoroundecanoic acid) | level (log10) (Perfluorononanoic acid; 6700 nM) | level (log10) (Perfluorononanoic acid; 20000 nM) | level (log10) ([6]; 1500 nM) | level (log10) ([6]; 4400 nM) | level (log10) ([6]; 13000 nM) | level (log10) ([6]; 40000 nM)
BE3C:CD54/ICAM-1 | -0.019 ± 0.024 | -0.008 ± 0.0057 | 0.01 ± 0.0028 | -0.007 ± 0.0057 | -0.0025 ± 0.0035 | -0.016 | 0.013 ± 0.0057 | 0.0185 ± 0.018 | -0.003 ± 0.03 | -0.688 ± 0.018 | 0.0115 ± 0.037 | 0.0145 ± 0.033 | 0.0295 ± 0.033 | 0.004 ± 0.016 | -0.004 ± 0.034 | 0.0095 ± 0.0035 | -0.0035 ± 0.033 | -0.0265 ± 0.005 | -0.0205 ± 0.0021 | -0.0105 ± 0.021
BE3C:CD87/uPAR | 0.005 ± 0.0099 | -0.0025 ± 0.0064 | 0.0145 ± 0.0021 | 0.011 ± 0.034 | 0.0215 ± 0.0078 | 0.027 ± 0.0085 | -0.002 ± 0.0085 | 0.026 ± 0.0085 | -0.0195 ± 0.00071 | -0.48 ± 0.05 | -0.0035 ± 0.0021 | -0.011 ± 0.0057 | 0.025 ± 0.024 | 0.138 ± 0.019 | 0.046 ± 0.013 | 0.0495 ± 0.019 | -0.08 ± 0.048 | -0.102 ± 0.0057 | -0.108 ± 0.033 | -0.096 ± 0.0042
BE3C:CXCL8/IL-8 | -0.001 ± 0.0085 | -0.006 ± 0.0014 | 0.043 ± 0.04 | -0.013 ± 0.071 | 0.0005 ± 0.011 | 0.0195 ± 0.011 | -0.021 ± 0.027 | -0.0325 ± 0.023 | -0.0245 ± 0.066 | -0.259 ± 0.0014 | 0.05 ± 0.038 | 0.039 ± 0.023 | 0.0625 ± 0.00071 | -0.113 | -0.03 ± 0.0057 | -0.175 ± 0.0042 | -0.094 ± 0.044 | -0.137 ± 0.015 | -0.171 ± 0.0092 | -0.157 ± 0.011
BE3C:CXCL9/MIG | -0.0055 ± 0.016 | 0.0065 ± 0.0078 | 0.0025 ± 0.0021 | 0.0065 ± 0.013 | 0.0045 ± 0.005 | 0 ± 0.0042 | 0.004 ± 0.0085 | 0 ± 0.016 | -0.006 ± 0.0071 | -1.19 ± 0.017 | -0.001 ± 0.0071 | 0.0025 ± 0.0078 | 0.0045 ± 0.015 | -0.0125 ± 0.0064 | -0.019 ± 0.013 | -0.0195 ± 0.0021 | -0.0065 ± 0.019 | 0.003 ± 0.02 | -0.01 ± 0.014 | -0.0085 ± 0.00071
BE3C:CXCL10/IP-10 | -0.009 ± 0.021 | 0.002 ± 0.016 | -0.0015 ± 0.0035 | -0.0095 ± 0.013 | -0.001 ± 0.0042 | 0.0115 ± 0.0092 | 0.003 ± 0.013 | -0.006 ± 0.0014 | -0.018 ± 0.0028 | -1.1 ± 0.023 | 0.035 ± 0.024 | 0.0325 ± 0.015 | 0.036 ± 0.0071 | -0.4655 ± 0.0021 | -0.039 ± 0.025 | -0.145 ± 0.031 | 0.0215 ± 0.021 | 0.014 ± 0.028 | 0 ± 0.02 | -0.0035 ± 0.016
BE3C:CXCL11/I-TAC | 0.004 ± 0.0014 | 0.0075 ± 0.0078 | 0.0155 ± 0.012 | -0.011 ± 0.0057 | 0.0115 ± 0.0021 | -0.0045 ± 0.0078 | -0.006 ± 0.0085 | -0.0045 ± 0.026 | -0.0165 ± 0.0064 | -0.992 ± 0.025 | 0.0145 ± 0.0092 | 0.0165 ± 0.013 | 0.014 ± 0.016 | -0.114 ± 0.047 | -0.01 ± 0.016 | -0.0315 ± 0.044 | 0 ± 0.018 | 0.0145 ± 0.0021 | -0.0175 ± 0.04 | -0.0215 ± 0.0078
